# Assay results taken from US20030130200A1, “Small peptides and methods for treatment of asthma and inflammation” (Hisatek, LLC, priority 1997, published 2003).
# “Also recorded” adds a separate entry of the source. Where no end group is shown, it is not given here. The star is where a group is joined. For = O=C*
# Tested on: OVA-sensitized/challenged mice
# Assay: OVA allergen-induced airway inflammation mouse model, 28-day protocol, HK-X i.n. before challenges on days 25, 26, 27
# Format: in vivo, mouse (BALB/c)
# From the text: The above-described murine model reproduces key features of human asthma. Late-phase allergen-specific pulmonary disease was induced in normal BALB/c mice using ovalbumin (OVA) as allergen. One protocol includes immunization of mice with i.p. OVA on days 1 and 14, and intranasal (i.n.) administration of OVA on days 14, 25, 26. and 27.
# In a mouse model of allergen-induced airway inflammation, the role of mast cell in airway eosinophil infiltration, mucus release, and hyper-responsiveness to methacholine was examined.
# Materials were used as described above. Mice received an i.p. injection of 0.2 ml (100 ug) of OVA complexed with aluminum potassium sulfate (alum) on day 0 and 14. On days 14, 25, 26, and 27, mice were anesthetized with 0.2 ml i.p. of ketamine (0.44 mg/ml)/xylazine (6.3 mg/ml) in normal saline before receiving an intranasal (i.n.) dose of 100 ug OVA in 0.05 ml normal saline on days 25, 26, and 27. Lung tissue was obtained 24 hours after the last i.n. challenge on day 28. The control group received normal saline with alum i.p. on days 0 and 14 and normal saline without alum i.n. on days 14, 25, 26, and 27. To assess the effect of HK-X inhibition on OVA induced asthma, HK-X (10 ug/ml) was given i.n. 30 minutes before each i.n. challenge on days 25, 26, and 27.
# After tying off the left lung at the mainstem bronchus, the right lung was […] three times with 0.4 ml of normal saline. Bronchoalveolar lavage (BAL) fluid cells from a 0.05 ml aliquot of the pooled sample wee counted using a hemocytometer and the remaining fluid centrifuged at 4° C. for 10 minutes at 200 g. After resuspension of the cell pellet in normal saline containing 10% BSA, BAL cell smears were made on glass slides. To stain eosinophils, dried slides were stained with Discombe's diluting fluid (0.05% aqueous eosin and 5% (v/v) acetone in distilled water) for 5-8 minutes, rinsed with water for 0.5 minutes and counterstained with […] for 2 minutes
# Following BAL, the trachea and left lung (upper and lower lobes) were obtained and fixed in 10% buffered formalin solution at 20° C. forlS hours. After the tissues were processed and embeded in paraffin, the tissues were cut into 5 μm sections and stained with Discombe's solution and counterstained with methylene blue as described above or stained with Hematoxylin and eosin. The eosinophil number per unit airway area (2200 μm^2) was determined by morphometry as previously described. Airway mucus was identified by a variety of staining methods, i.e., methylene blue, Hematoxylin and eosin, mucicarmine, toluidine blue, alcian blue, and alcian blue/periodic acid Schiff (PAS) reaction. […] The degree of mucus plugging of the airways (0.5-0.8 mm in diameter) also was assessed by morphometry. […]
substance,measurement,setting,value
f-Met-Leu-Phe-Phe (For-MLFF) [Example 9],Cellular infiltration during asthmatic attack (histopathology),"10 μg HK-X intranasally 30 minutes prior to challenge, FIG. 9",reduces the cellular infiltration
same,Eosinophil influx into the lung tissue and BAL fluid,"OVA sensitized/challenged mice, FIGS. 8A, 9A, 10A",markedly reduced
same,Airway mucus release / secretion,"OVA sensitized/challenged mice, histopathology FIGS. 8A, 9A, 10A, listed as HK-X",prevented airway mucus release; also recorded: blocked the airway mucus release; also recorded: prevents the airway mucus secretion; also recorded: reduces the mucus secretion in airways
same,Reduction of eosinophil influx into the lung interstitium (morphometric analysis),"p<0.006 compared to OVA without HK-X, FIG. 11",90%
